Test [1] concerns L6-myotubes. The test is described as follows: Glucose uptake in differentiated L6-myotubes (3H-2-deoxy-glucose). It is filed as cell-based. The following applies: read-out: Biological example 1: glucose uptake, % increase over the basal level. On the procedure:
(§1) L6-myoblasts were grown in Dulbecco's Modified Eagle's Medium (DMEM) containing 4,5 g/I glucose supplemented with 10% fetal bovine serum, 2 mM L-Glutamine, 50 U/ml penicillin, 50 μg/ml streptomycin and 10 mM HEPES. Cells were plated at 1×10^5 cells per ml in 24-well plates. After reaching 90% confluence the cells were grown in medium containing 2% FBS for 7 days where upon cells differentited into myotubes.
Differentiated L6-myotubes were serum-starved over night in medium containing 0.5% fatty-acid free BSA and stimulated with agonist, […], glucose free medium or PBS and another portion of agonist was added to glucose free medium. […] Cell lysate was mixed with scintillation buffer (Emulsifier Safe, Perkin Elmer and radioactivity detected in a β-counter (Tri-Carb 2800TR, Perkin Elmer). The numerical values in the table are given as % increase over the basal level.

In test [2] the test system is L6-myotubes. The test is described as follows: Measurement of intracellular cAMP levels (alpha screen cAMP kit). It is filed as cell-based. The following applies: agonist final concentration 1×10^−5, 15 min; differentiated cells; 1 mM IBMX. On the procedure:
as §1
Differentiated cells were serum-starved over night and stimulated with agonist, final concentration 1×10−^5, for 15 min in stimulation buffer (HBSS supplemented with 1% BSA, 5 mM HEPES and 1 mM IBMX, pH 7,4) The medium was then aspirated and to end the reaction 100 μL of 95% EtOH was added to each well of a 24-well plate and cells were kept in −20° C. over night. The EtOH was let to evaporate and 500 μL of lysis buffer (1% BSA, 5 mM HEPES and 0,3% Tween-20, pH 7.4) was added to each well before put in −80° C. for 30 min and then kept in −20° C. Intracellular cAMP levels were detected using an alpha screen cAMP kit (6760635D from Perkin Elmer). The numerical values in the table are given as % increase over the basal level.

Test [3] concerns the target T1, human β2-adrenoceptor (Homo sapiens, UniProt P07550).
T1 construct: expressed in transfected cells
The test is described as follows: 3H-CGP 12177 whole cell β2 binding. The method, then: ^3H-CGP 12177 Whole Cell β2 Binding
Chinese Hamster Ovary (CHO) cells stably expressing the human β2-adrenoceptor were grown in Dulbecco's modified Eagle's medium nutrient mix F12 (DMEM/F12) containing 10% fetal calf serum and 2 mM L-glutamine in a 37° C. humidified 5% CO2:95% air atmosphere. The cells were seeded (100 000 cells/mL) into white-sided, clear-bottomed 96-well isoplates and allowed to grow to confluence for the following day's experiment. Next day, the media was removed from each well of the isoplate. Aliquots of the test compounds (10^−2 M in DMSO) were diluted in DMEM/F12 containing 2 mM L-glutamine (serum-free media) to final concentration ranges of 10^−4 M to 10^−10 M and added to each well. The radioligand ^3H-CGP 12177 was diluted in the same medium (˜1 nM final well concentration) and added to each well. Propranolol and CGP 12177 (10 μM) were used to measure non-specific binding. The cells were incubated for 2 hours at 37° C. After incubation, the cells were washed twice by the addition and removal of 200 μL ice-cold phosphate-buffered saline (PBS). Cells were then lysed with Optiphase Supermix cocktail (100 μL/well) and a clear sealant top was applied to the plate. The plate was left overnight in the dark at room temperature, centrifuged (1000 rpm, 1 min) and measured in a MicroBeta2 Microplate Counter (Perkin Elmer) (10 minutes pre-incubation, 2 min counts/well).
All data points on each binding curve were measured in duplicates. Each 96-well plate also contained four determinations of total and non-specific binding. Non-specific binding was determined in the presence of CGP 12177 and propranolol (10 μM). […] All data points are measured in counts per minute (CPM) and converted into disintegrations per minute (DPM) by dividing the count rate (CPM) with the counting efficiency of the instruments detector (57%). The numerical values were obtained by using the GraphPad Prism 7 programme and are given as -log K (pKi) in the table.

[4] abbreviates: CHO cells stably expressing the human β2-adrenoceptor, ~1 nM 3H-CGP 12177, 2 hours at 37° C., read-out: Biological example 3: -log K (pKi), 3H-CGP 12177 whole cell β2 binding (converted).
Where [5] appears, read: agonist final concentration 1×10^−5, differentiated L6-myotubes, 50 nM 3H-2-deoxy-glucose.

Structures can show the parent of a compound that is named as a salt. Where two headings read alike, the source gives them in different places.

T1 sequence (P07550 whole entry): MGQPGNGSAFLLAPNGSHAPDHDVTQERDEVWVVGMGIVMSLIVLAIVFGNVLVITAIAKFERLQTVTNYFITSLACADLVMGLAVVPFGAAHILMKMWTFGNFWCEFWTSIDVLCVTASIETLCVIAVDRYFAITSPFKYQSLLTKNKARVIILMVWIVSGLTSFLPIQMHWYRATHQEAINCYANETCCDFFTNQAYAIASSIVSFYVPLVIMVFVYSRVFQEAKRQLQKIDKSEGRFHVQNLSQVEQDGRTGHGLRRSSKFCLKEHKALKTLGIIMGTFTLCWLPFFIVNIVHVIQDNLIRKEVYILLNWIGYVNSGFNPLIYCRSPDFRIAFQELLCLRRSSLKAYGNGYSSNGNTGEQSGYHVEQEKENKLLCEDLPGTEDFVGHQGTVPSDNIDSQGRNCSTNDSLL

`CCCC(C)NCC(O)c1cc(Cl)c(N)c(Cl)c1` (mixture of isomers) [Example 28, 1-(4-Amino-3,5-dichlorophenyl)-2-(pentan-2-ylamino)ethan-1-ol trifluoroacetate]: the activation in test [1] turned out to be 39%. In addition, the “Biological example 2: intracellular cAMP levels, % increase over the basal level” value in test [2] stood at 2%. Moreover, the Ki in test [3] was 0.398 µM.
On to `CCCC(C)NCC(O)c1ccc(O)cc1` (stereo not drawn) [Example 8, 4-(1-Hydroxy-2-(pentan-2-ylamino)ethyl)phenol acetate], for which the activation in test [1] turned out to be 12%. Besides, the “Biological example 2: intracellular cAMP levels, % increase over the basal level” value in test [2] was determined as 15%. In test [3] (setting [4]), the Ki was 20 µM.
Turning to `CCCC(C)NCC(O)c1cccc(O)c1` (mixture of isomers) [Example 15, 3-(1-Hydroxy-2-(pentan-2-ylamino)ethyl)phenol], in test [1] (setting [5]), the activation worked out at 31%. Further, the “Biological example 2: intracellular cAMP levels, % increase over the basal level” value in test [2] was 20%. Further, in test [3] (setting [4]), the Ki was 0.794 µM.
`Oc1ccc(C(O)CNC23CC4CC(CC(C4)C2)C3)cc1` (stereo not drawn) [Example 9, 4-(2-(adamantan-1-ylamino)-1-hydroxyethyl)phenol hemisulfate]: the activation in test [1] (setting [5]) turned out to be 18%. Further, the “Biological example 2: intracellular cAMP levels, % increase over the basal level” value in test [2] was found to be 4%. For the same molecule, in test [3] (setting [4]), the Ki is 50.1 µM.
As to `Oc1ccc(C(O)CNC2CCCC2)cc1` (stereo not drawn) [Example 7, 4-(2-(cyclopentylamino)-1-hydroxyethyl)phenol acetate], in test [1] (setting [5]), the activation was determined as 23%. Moreover, in test [2], the “Biological example 2: intracellular cAMP levels, % increase over the basal level” value came to 1%. Further, the Ki in test [3] (setting [4]) is 5.01 µM.
The corresponding values for `CCCCNC(C)C(O)c1ccc(O)cc1` (stereo not drawn) [Example 12, 4-(2-(Butylamino)-1-hydroxypropyl)phenol acetate] are 40%, 190% and 7.94 µM.
The corresponding values for `Oc1ccc(C(O)CNCC2CCCCC2)cc1` (stereo not drawn) [Example 6, 4-(2-((Cyclohexylmethyl)amino)-1-hydroxyethyl)phenol] are 23%, 3% and 10 µM.
In the same order, the values of `CCCC(C)NC(C)C(O)c1ccc(O)cc1` (mixture of isomers) [Example 13, 4-(1-Hydroxy-2-(pentan-2-ylamino)propyl)phenol acetate] are 42%, −1% and 15.8 µM.
Turning to `CCCCCCCCNCC(O)c1ccc(O)cc1` (stereo not drawn) [Example 18, 4-(1-Hydroxy-2-(octylamino)ethyl)phenol acetate], the activation in test [1] (setting [5]) stood at 26%. The “Biological example 2: intracellular cAMP levels, % increase over the basal level” value in test [2] is −23%. The Ki in test [3] (setting [4]) was 6.31 µM.
As to `CCCCNCC(O)c1cc(Cl)c(O)c(Cl)c1` (stereo not drawn) [Example 26, 4-(2-(Butylamino)-1-hydroxyethyl)-2,6-dichlorophenol], the activation in test [1] was determined as 10%. In test [2], the “Biological example 2: intracellular cAMP levels, % increase over the basal level” value is given as −0.3%. Further, in test [3] (setting [4]), the Ki is 25.1 µM.

(Values after patent US20190119196A1, “COMPOUNDS FOR THE TREATMENT OF […]” (priority 2016, published 2019).)
